The values that follow come from PubChem BioAssay AID493111 (The Scripps Research Institute Molecular Screening Center, 2011).

SMILES strings stand for the structures. The source made the active and inactive calls. No rule for the calls is given here.

Some test systems named below: LYPLA2; ESD; LYPLA1; APEH; ABHD11.
What all share (test): LYPLA1/LYPLA2 inhibition and hydrolase selectivity, late-stage follow-up, selectivity assay for LYPLA1/LYPLA2 dual inhibitor project, biochemical, gel-based ABPP, fluorescence, proteome (AID 493111)
Details in all cases: fluorophosphonate-rhodamine competition, at 1.5 µM (top of the series)

Turning to `O=C(N1CCCCC1)n1ncc(C(O)c2ccccc2)n1` (stereo not given), the inhibition in the assay on LYPLA2 was 75%; in the assay on ESD, 75%; with LYPLA1, 100%; with APEH it was 0% (inactive); in the assay on ABHD11, 100%.
For the compound `O=C(N1CCC(C(O)(c2ccccc2)c2ccccc2)CC1)n1ncc(C(O)(c2ccccc2)c2ccccc2)n1`, the inhibition was 100% in the assay with LYPLA2; 0% (inactive) in the assay with ESD; 100% in the assay on LYPLA1; 0% (inactive) with APEH; 100% in the assay with ABHD11.
Regarding `CC(C)(C)C1CCN(C(=O)n2ncc(C3(O)CCCCC3)n2)CC1`, the inhibition with LYPLA2 was 100%; in the assay with ESD, 50% (inactive); with LYPLA1, 100%; in the assay on APEH, 0% (inactive); in the assay on ABHD11, 100%.
As to `COc1ccc2cc(-c3cnn(C(=O)N4CCCCC4)n3)ccc2c1`, the inhibition in the assay on LYPLA2 is 50% (inactive); with ESD, 100%; with LYPLA1, 100% (inactive); with APEH it was 75% (inactive); with ABHD11, 100%.
As for `CC1CCN(C(=O)n2ncc(C(O)(c3ccccc3)c3ccccc3)n2)CC1`, the inhibition in the assay on LYPLA2 is 100%; in the assay on ESD it was 75% (inactive); with LYPLA1 it was 100%; with APEH, 100%; in the assay on ABHD11 it was 100%.
`O=C(N1CCOCC1)n1ncc(C(O)(c2ccccc2)c2ccccc2)n1`: the inhibition is 50% (inactive) in the assay on LYPLA2; 50% (inactive) in the assay with ESD; 100% in the assay with LYPLA1; 50% (inactive) in the assay with APEH; 100% with ABHD11.
For the compound `O=C(N1CCOCC1)n1ncc(-c2cc(F)cc(F)c2)n1`, the inhibition in the assay with LYPLA2 was 0% (inactive); in the assay on ESD, 75%; in the assay with LYPLA1, 50% (inactive); in the assay on APEH, 100%; with ABHD11, 100%.
Take `O=C(N1CCOCC1)n1nnc2ccccc21`: the inhibition was 0% (inactive) in the assay on LYPLA2; 50% (inactive) in the assay with ESD; 50% (inactive) in the assay with LYPLA1; 100% (inactive) in the assay with APEH; 100% in the assay on ABHD11.
With `O=C(N1CCCCC1)n1ncc(C(O)(c2ccccc2)c2ccccc2)n1`, the inhibition with LYPLA2 was 100%; in the assay on ESD, 100%; in the assay on LYPLA1, 100%; in the assay with APEH it was 50% (inactive); in the assay with ABHD11 it was 100%.
For the compound `O=C(N1CCCC(Cc2ccccc2)C1)n1cc(C(O)(c2ccccc2)c2ccccc2)nn1` (stereo not given), the inhibition is 100% in the assay with LYPLA2; 50% (inactive) in the assay on ESD; 100% in the assay on LYPLA1; 0% (inactive) in the assay with APEH; 100% with ABHD11.
In the case of `COC1CCN(C(=O)n2ncc(C(O)(c3ccccc3)c3ccccc3)n2)CC1`, the inhibition in the assay with LYPLA2 is 100%; with ESD, 100% (inactive); in the assay on LYPLA1 it was 100%; in the assay on APEH, 0% (inactive); in the assay with ABHD11, 100%.
Take `O=C(N1CCOCC1)n1ncc(-c2ccc(OC(F)(F)F)cc2)n1`: the inhibition was 0% (inactive) in the assay with LYPLA2; 75% (inactive) in the assay on ESD; 0% (inactive) in the assay with LYPLA1; 50% (inactive) in the assay with APEH; 100% in the assay with ABHD11.
For `O=C(N1CCOCC1)n1ncc(-c2ccccc2)n1`, the inhibition is 0% (inactive) in the assay with LYPLA2; 75% with ESD; 0% (inactive) with LYPLA1; 100% with APEH; 100% in the assay with ABHD11.
For `CC(C)(O)c1cnn(C(=O)N2CCC(C(C)(C)C)CC2)n1`, the inhibition in the assay with LYPLA2 is 100%; with ESD, 0% (inactive); in the assay on LYPLA1, 100%; with APEH, 0% (inactive); in the assay on ABHD11 it was 100% (inactive).
With `O=C(N1CCC(Cc2ccccc2)CC1)n1ncc(C(O)(c2ccccc2)c2ccccc2)n1`, the inhibition in the assay on LYPLA2 was 100%; with ESD, 50% (inactive); in the assay with LYPLA1, 100%; with APEH, 0% (inactive); in the assay on ABHD11 it was 100%.
In the case of `CC(C)(C)C1CCN(C(=O)n2ncc(C(O)(c3ccccc3)c3ccccc3)n2)CC1`, the inhibition in the assay on LYPLA2 was 100%; in the assay on ESD, 50% (inactive); with LYPLA1, 100%; in the assay on APEH it was 0% (inactive); in the assay on ABHD11, 100%.
For the compound `O=C(N1CCCCC1)n1ncc(-c2ccc(Oc3ccccc3)cc2)n1`, the inhibition with LYPLA2 is 0% (inactive); with ESD, 100%; with LYPLA1, 100%; in the assay with APEH, 0% (inactive); in the assay on ABHD11, 100%.
As for `O=C(N1CCOCC1)n1ccnn1`, the inhibition with LYPLA2 was 0% (inactive); in the assay on ESD it was 0% (inactive); with LYPLA1, 0% (inactive); in the assay with APEH it was 0% (inactive); in the assay on ABHD11 it was 100%.
With `CCC1CCCCN1C(=O)n1ncc(C(O)(c2ccccc2)c2ccccc2)n1` (stereo not given), the inhibition in the assay on LYPLA2 is 0% (inactive); with ESD, 0% (inactive); in the assay on LYPLA1, 0% (inactive); in the assay on APEH, 50% (inactive); in the assay on ABHD11, 100%.
As to `O=C(N1CCCCC1)n1ccnn1`, the inhibition in the assay with LYPLA2 is 0% (inactive); in the assay on ESD, 0% (inactive); in the assay with LYPLA1, 75% (inactive); in the assay on APEH, 0% (inactive); in the assay with ABHD11, 100%.
